Measurements reported in the Kinase Knowledgebase extract (Sharma et al. 2016).

Biological target: MAPK14 (human) (UniProt Q16539)
Test: Inhibition of MAPK14 Kinase Activity

Sequence of MAPK14 (human) (Q16539 whole entry, looked up): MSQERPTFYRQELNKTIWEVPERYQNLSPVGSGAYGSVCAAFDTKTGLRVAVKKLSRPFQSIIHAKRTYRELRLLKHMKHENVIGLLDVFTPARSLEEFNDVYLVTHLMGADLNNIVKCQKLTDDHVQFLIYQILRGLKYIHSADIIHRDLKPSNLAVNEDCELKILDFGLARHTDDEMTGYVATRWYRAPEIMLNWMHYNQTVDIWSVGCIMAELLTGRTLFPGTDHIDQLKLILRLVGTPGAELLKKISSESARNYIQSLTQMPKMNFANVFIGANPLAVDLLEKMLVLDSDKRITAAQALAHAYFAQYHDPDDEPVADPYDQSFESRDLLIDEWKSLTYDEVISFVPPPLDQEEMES

IC50 [µM]	Structure (SMILES)
≤ 10	Cc1ccc(SC2CCC(=O)N(C3C(Cl)CCCC3Cl)C2)c(C)c1 (stereo not given)
≤ 10	CC(=O)Nc1ccc(Cl)c(N2CC(Sc3ccc(F)cc3F)CCC2=O)c1Cl (stereo not given)
≤ 10	CNc1ccc(Cl)c(N2CC(Cc3ccc(F)cc3F)SCC2=O)c1Cl (stereo not given)
≤ 10	O=C1CCC(Oc2cc(Cl)cc(Cl)c2)CN1c1c(Cl)cncc1Cl (stereo not given)
≤ 10	O=C1CSC(Cc2ccc(F)cc2F)CN1c1c(Cl)cccc1Cl (stereo not given)
≤ 10	O=C1SCC(Cc2ccccc2Cl)CN1c1c(Cl)cccc1Cl (stereo not given)
≤ 10	CCOC(=O)CCCC(=O)Nc1cc(Cl)c(N2CC(Cc3ccc(F)cc3F)CCC2=O)c(Cl)c1 (stereo not given)
≤ 10	Cc1ccc(OC2CCC(=O)N(c3c(Cl)ccnc3Cl)C2)c(C)c1 (stereo not given)
≤ 10	O=C1COC(Cc2ccc(F)cc2)CN1c1c(Cl)cccc1Cl (stereo not given)
≤ 10	CN1CC(Cc2ccc(F)cc2)CN(c2c(Cl)cccc2Cl)C1=O (stereo not given)
≤ 10	Nc1ccc(Cl)c(N2CC(Cc3ccc(F)cc3F)CCC2=O)c1Cl (stereo not given)
≤ 10	O=C1COC(Cc2cccc3ccccc23)CN1c1c(Cl)cccc1Cl (stereo not given)
≤ 10	O=C1CCC(Sc2ccc(F)cc2)CN1c1c(Cl)csc1Cl (stereo not given)
≤ 10	CN1CC(Cc2ccc(F)cc2F)CN(c2c(Cl)ccc(CO)c2Cl)C1=O (stereo not given)
≤ 10	Cc1ccc(CC2CN(c3c(Cl)cccc3Cl)C(=O)CS2)c(C)c1 (stereo not given)
≤ 10	COc1ccccc1CC1CCC(=O)N(C2C(Cl)CCCC2Cl)C1 (stereo not given)
≤ 10	Nc1ccc(N2CC(Cc3ccc(F)cc3F)CCC2=O)c(Cl)c1 (stereo not given)
≤ 10	O=C1CCC(Sc2ccc(Cl)cc2)CN1c1c(Cl)csc1Cl (stereo not given)

More lines, now with the values behind:

Structure (SMILES)	IC50 [µM]
O=C1CCC(Cc2ccc3ccccc3c2)CN1c1c(Cl)csc1Cl (stereo not given)	≤ 10
CN(C)NC(=O)CNc1cc(Cl)c(N2CC(Cc3ccc(F)cc3F)CCC2=O)c(Cl)c1 (stereo not given)	≤ 10
CCOC(=O)CCNC(=O)c1cc(C)c(N2CC(Cc3ccc(F)cc3F)CCC2=O)c(C)c1 (stereo not given)	≤ 10
CC(=O)Nc1cc(Cl)c(N2CC(Cc3ccc(F)cc3F)COC2=O)c(Cl)c1 (stereo not given)	≤ 10
O=C1CCC(Sc2cc(F)cc(F)c2)CN1c1c(Cl)cncc1Cl (stereo not given)	≤ 10
Cc1cc(C)cc(CC2CCC(=O)N(c3c(Cl)ccnc3Cl)C2)c1 (stereo not given)	≤ 10
NCc1ccccc1CC1CCC(=O)N(c2c(Cl)cccc2Cl)C1 (stereo not given)	≤ 10
O=C1OCC(Cc2ccc(Cl)cc2)CN1c1c(Cl)cccc1Cl (stereo not given)	≤ 10
COc1ccc(SC2CCC(=O)N(C3C(Cl)CCCC3Cl)C2)cc1 (stereo not given)	≤ 10
O=C1COC(Cc2ccc(F)cc2F)CN1c1c(Cl)cc(CO)cc1Cl (stereo not given)	≤ 10
Cc1cc(C#CCCOC2CCCCO2)cc(C)c1N1CC(Cc2ccc(F)cc2F)CCC1=O (stereo not given)	≤ 10
CC(=O)NCCNc1cc(Cl)c(N2CC(Cc3ccc(F)cc3F)CCC2=O)c(Cl)c1 (stereo not given)	≤ 10
O=C1CCC(Cc2ccccc2)CN1c1c(Cl)cccc1Cl (stereo not given)	≤ 10
COc1ccc(CC2CNC(=O)N(c3c(Cl)cccc3Cl)C2)cc1 (stereo not given)	≤ 10
O=C1CCC(Oc2ccc(F)cc2F)CN1C1C(Cl)CCC(O)C1Cl (stereo not given)	≤ 10
Nc1cnc(Cl)c(N2CC(Oc3ccc(F)cc3F)CCC2=O)c1Cl (stereo not given)	≤ 10
Cc1cc(C(=O)N2CCN(C)CC2)cc(C)c1N1CC(Cc2ccc(F)cc2F)CCC1=O (stereo not given)	≤ 10
CC(=O)NC1CC(Cl)C(N2CC(Oc3ccc(F)cc3F)CCC2=O)C(Cl)C1 (stereo not given)	≤ 10
CC(C)(C)C(=O)Nc1cc(Cl)c(N2CC(Cc3ccc(F)cc3F)CCC2=O)c(Cl)c1 (stereo not given)	≤ 10
COCOCc1ccccc1CC1CCC(=O)N(c2c(Cl)cccc2Cl)C1 (stereo not given)	≤ 10
CNc1ccc(Cl)c(N2CC(Cc3ccc(F)cc3F)OCC2=O)c1Cl (stereo not given)	≤ 10
O=C1CCC(Sc2ccc(F)cc2F)CN1c1c(Cl)ncc(CO)c1Cl (stereo not given)	≤ 10
NC(=O)/C=C/c1cc(Cl)c(N2CC(Cc3ccc(F)cc3F)CCC2=O)c(Cl)c1 (stereo not given)	≤ 10
O=C1CCC(Oc2ccc3ccccc3c2)CN1c1c(Cl)ccnc1Cl (stereo not given)	≤ 10
O=C1CCC(Cc2ccc(F)cc2)CN1C1C(Cl)CCCC1Cl (stereo not given)	≤ 10
CCOC(=O)COc1ccccc1CC1CCC(=O)N(c2c(C)cccc2C)C1 (stereo not given)	≤ 10
O=C(Cc1ccccc1)Nc1cc(Cl)c(N2CC(Cc3ccc(F)cc3F)SCC2=O)c(Cl)c1 (stereo not given)	≤ 10
